We go through 1 compound from patent US20260240851A1, “Treatment of Parkinson's Disease in a Patient Using a Glucocerebrosidase Activator” (BIAL - R&D Investments, S.A., priority 2023, published 2026).

Each structure is given as a SMILES string.

A short description of series [1]: LTI-291-002: safety and tolerability. The format is in vivo, human. As for the experimental part: This study was a phase 1, randomized, double-blind, placebo-controlled, multiple ascending dose study of Compound A in 4 cohorts of middle-aged to elderly healthy participants (aged 52 to 75 years). […] A total of 39 healthy subjects were enrolled in 4 sequential cohorts. Subjects in each cohort received once-daily oral doses of 3 mg (n=7), 10 mg (n=8), 30 mg (n=8), or 60 mg (n=8) Compound A or placebo (n=8) for 14 days. Pharmacokinetic parameters were determined for each dose at Day 1, Day 7, and Day 14. Cerebrospinal fluid samples for Compound A concentrations were measured before the first dose and 4 hours after the last dose for each dose level. GluCer, glucosyl sphingosine (GluSph), and lactosyl-ceramide (LacCer) were measured in plasma, PBMCs, and CSF as biomarkers of pharmacological effects. Pharmacodynamic measurements consisted of battery of CNS (NeuroCart®) assessments including Saccadic Eye Movements, Smooth Pursuit Eye Movements, Adaptive Tracking, Body Sway, Visual Verbal Learning Test, and pharmaco-EEG.

The target in a further series is T1, GCase (Homo sapiens, UniProt P04062).
T1 construct: brain homogenate (5 μg/well) as enzyme source; from tissue; host or cells: human brain homogenate
T1 sequence (P04062 40-536): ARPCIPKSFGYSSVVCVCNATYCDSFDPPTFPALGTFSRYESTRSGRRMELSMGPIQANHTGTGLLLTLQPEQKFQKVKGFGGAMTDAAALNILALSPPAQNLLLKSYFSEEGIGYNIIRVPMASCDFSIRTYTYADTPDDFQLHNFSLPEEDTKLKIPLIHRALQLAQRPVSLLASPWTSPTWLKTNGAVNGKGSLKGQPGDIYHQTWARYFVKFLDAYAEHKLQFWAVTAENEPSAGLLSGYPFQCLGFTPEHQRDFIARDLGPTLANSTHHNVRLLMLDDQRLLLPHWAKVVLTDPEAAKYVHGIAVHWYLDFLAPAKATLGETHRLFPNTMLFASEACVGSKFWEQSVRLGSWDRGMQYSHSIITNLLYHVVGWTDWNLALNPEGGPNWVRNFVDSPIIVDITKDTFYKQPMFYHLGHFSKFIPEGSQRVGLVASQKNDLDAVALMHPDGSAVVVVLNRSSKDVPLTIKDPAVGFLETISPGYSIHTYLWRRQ
Nature of the series: In vitro GCase brain homogenate activity assay superimposed on estimated human brain Cb,min,ss. In kind it is biochemical. The conditions noted are these: for minimum GCase activity in GBA-PD patients: brain Cmin at steady state (Cb,min,ss), estimated. The text has this:
The in vitro measurement of GCase activity in human brain homogenates was used to correlate the exposure and GCase activity and to estimate the increase in GCase activity in the brain of GBA-PD patients at Cmin at steady state (Cb,min,ss) across different dose levels. The relationship between concentration observed in brain and CSF in rat was used to obtain the brain concentrations of Compound A in humans, assuming the same relationship conserved among mammalian species. The range of human estimated Cb,min,ss were superimposed to the corresponding concentration from in vitro study with human brain homogenates to obtain the GCase activation by Compound A.
The activity of Compound A in the GCase assay was determined using 4-MUG (1 mM) as substrate and brain homogenate (5 μg/well) as enzyme source.
A 500 μl aliquot of a 1.0 mg/ml solution of phosphatidylserine (PS, Sigma P7769) in chloroform was evaporated under a stream of nitrogen for 1 hour. The lipid film was dissolved with 4 minutes of vigorous vortexing in 41 ml of 176 mM K2HPO4/50 mM citric acid pH 4.7 containing 7.7 μl of triton X-100, resulting in a mixed micellar preparation with a composition of 0.32 mM triton and 4.6 mol % PS.
4-methylumbelliferyl-beta-D-glucopyranoside (4-MUG, ACROS-337025000) was dissolved in the micellar solution to a final concentration of 2 mM for use as the reaction substrate. The micellar/homogenate solution was prepared by adding 3.2 ml Triton X-100/phosphotidylserine mixed micelles containing 400 μg/mL brain homogenate. A 1.6 mL portion of this mixture received 32 μl conduritol B epoxide (CBE, 100 mM stock in DMSO) for final concentration of 2 mM CBE. The remaining 1.6 mL portion received 32 μl DMSO as solvent control. Compound A was diluted with DMSO from a 10 mM stock to the desired assay concentrations, and 0.45 μl of compound in DMSO was added to 75 μl of micellar/homogenate solution (+/−CBE).
After a 30 minute pre-incubation at room temperature, the reaction was initiated by combining 25 μl of substrate solution with 25 μl of compound/GCase/homogenate mixture. The reaction proceeded for 30 minutes at room temperature for Rat, Cyno and Dog brain homogenates, 60 minutes for Mouse and Human brain homogenate. The reaction was stopped by adding 150 μl of 1M glycine, pH 12.5. The endpoint fluorescence intensity of the reaction was measured at excitation 365 nm, emission 440 nm on a SpectraMax i3 instrument (Molecular Devices). Compound activity was expressed relative to a DMSO control. […]
An API4000 mass spectrometer equipped with a turbo ion spray source was used for detection in positive ion mode. Quantification was based on multiple reaction monitoring (MRM) of the transitions of m/z 359.2-174.2 for LTI-291 and m/z 365.3-180.2 for its internal standard. […]

As to `CCCCCO[C@H]1CC[C@H](NC(=O)c2cnn3c(C)cc(C)nc23)CC1` [Compound A, 5,7-dimethyl-N-((1S*,4S)-4-(pentyloxy)cyclohexyl)pyrazolo[1,5-a]pyrimidine-3-carboxamide], the “Myalgia, subjects” value in series [1] (3 mg dose group) worked out at 14%; in series [1] (10 mg dose group) it was 0%; in series [1] (30 mg dose group), 13%; in series [1] (60 mg dose group), 38%. The “Somnolence, subjects” value amounted to 14% in series [1] (3 mg dose group), 0% in series [1] (10 mg dose group), 0% in series [1] (30 mg dose group) and 50% in series [1] (60 mg dose group). In addition, the creatine kinase abnormalities entry in series [1] (60 mg group) is listed as “No clinically significant creatine kinase abnormalities”. Moreover, the “deaths, SAEs, severe AEs, discontinuations due to AEs” value in series [1] (3-60 mg daily for 14 days) was “No deaths, other SAEs, severe AEs, or discontinuations due to AEs”. The “vital signs, laboratory safety assessments, ECG parameters” value in series [1] (14 days) is “no clinically significant safety observations”. In series [1] (all Compound A groups), the “AE back pain, subjects” value is listed as 13%. In addition, the “AE headache, subjects” value in series [1] (all Compound A groups) is given as 39%. Further, the “AE myalgia, subjects” value in series [1] (all Compound A groups) stood at 16%. In addition, in series [1] (all Compound A groups), the “AE somnolence, subjects” value worked out at 16%. Besides, the “minimum GCase activity in GBA-PD patients” value on GCase (10 mg) is given as 69.7-123%; at GCase (30 mg) it was 163-306%; on GCase (60 mg), 255-376%. Besides, at GCase (10 mg, dosing interval 24 h), the “minimum GCase activity relative to effective GCase activity” value is “approximately 2 times”.
